# Measured values reported in patent US20240108734A1, “METHODS FOR TREATING AND AMELIORATING CANCER” (The Regents of the University of California, priority 2021, published 2024).
# “Also recorded” adds a separate entry of the source.
# Experiments:
# [1] = tested on: beta-catenin; assay: qRT-PCR gene expression in BC CML CD34+ cells in stromal co-culture; type: cell-based, human; conditions: imetelstat monotherapy 5 μM for 14 days vs mismatch control
# Procedure: (§1) FIG. 7 illustrates supplementary FIG. 2, where gene expression qRT-PCR analyses of human CD34^+ cells sorted from BC CML patient samples (n=3) and MF patient samples (n=5) that were co-cultured with SL/M2 stromal cells and treated with mismatch control or imetelstat at 5 μM for 14 days.
# [2] = tested on: ADAR1; assay: as above; type: cell-based, human; conditions: imetelstat monotherapy 5 μM for 14 days vs mismatch control
# Procedure: as §1
# [3] = tested on: LSC; assay: Serial transplantation of BC CML LSC mouse model (LSC self-renewal); type: in vivo, mice
# Procedure: FIG. 4H. Self-renewal capacity of human progenitor cells was evaluated in serially transplanted mouse models. FACS analysis of percentage of live human CD34^+CD38^+Lin^− progenitor cells following serial engraftment of cells derived from mice treated with vehicle (red), mismatch (blue) or imetelstat (green).
# FIG. 4I. Kaplan-Meier survival curves of mice transplanted with CD34^+ cells selected from imetelstat treated mouse BM (green) compared with mismatch controls (blue).
# [4] = tested on: MF CD34+ cells (pre-LSC); assay: SL/M2 stromal co-culture, clonogenic survival and self-renewal (replating) assays, myelofibrosis; type: cell-based, human; conditions: imetelstat only (5 uM in b222), compared with normal bone marrow; for self-renewal capacity (replating) of MF CD34+ cells (pre-LSC): p<0.001; for survival of MF CD34+ cells (pre-LSC): p<0.01
# Source text: Lentiviral human wild-type and mutant ADAR1^E912A (pCDH-EF1-T2A-copGFP) and shRNA targeting ADAR1 were produced according to published protocols^27,37. In Vitro MPN-SPC and LSC Survival and Self-Renewal Assays with Imetelstat To assess MPN progenitor and LSC survival and self-renewal in vitro, human primary CD34^+ cells selected from BC CML (n=5), MF (n=9) or age matched normal bone marrow (a-NBM, n=4) were co-cultured with SL/M2 stromal cells for 7-14 days, and then treated with imetelstat alone or combined with dasatinib for BC CML or Pacritinib for MF. Colony forming and replating assays were performed as previously described^32.
# To assess MPN progenitor and LSC survival and self-renewal in vitro, human primary CD34^+ cells selected from BC CML (n=5), MF (n=9) or age matched normal bone marrow (a-NBM, n=4) were co-cultured with SL/M2 stromal cells for 7-14 days, and then treated with Imetelstat alone or combined with dasatinib for BC CML or Pacritinib for MF. Colony forming and replating assays were performed as previously described^32,33.
# FIG. 3A. A schematic illustration of SL/M2 stromal co-cultures established to quantify in vitro MPN-SPC and LSC survival and self-renewal. Human primary CD34^+ cells selected from BC CML (n=5), MF (n=9) or age matched normal bone marrow (a-NBM, n=4) were co-cultured with SL/M2 stromal cells for 7-14 days. While BC CML stromal co-cultures were treated with increasing doses of imetelstat with or without dasatinib, MF stromal co-cultures were treated with imetelast with or without pacritinib.
# FIG. 3D. Imetelstat was used at concentrations ranging from 1 to 10 μM to treat aged normal bone marrow (aNBM, n=4, dark blue) compared with myelofibrosis (MF, light blue, n=9) in stromal co-cultures followed by clonogenic survival (upper panel) and self-renewal (lower panel) assays (**p<0.01, ***p<0.001).
# FIG. 3E. Imetelstat was used at concentrations ranging from 1 to 10 μM alone or in combination with pacritinib (5 nM) to treat aged normal bone marrow (a-NBM, n=4, blue) compared with MF (green, n=9) in stromal co-cultures followed by clonogenic survival (upper panel) and self-renewal (lower panel) assays.
# [5] = tested on: BC CML CD34+ cells engrafted in RAG2-/-yc-/- mice; assay: Humanized BC CML LSC mouse model; type: in vivo
# Source text: Human CD34^+ cells isolated from MF and BC CML samples (Table S2, illustrated as FIG. 11) were transplanted intravenously into adult NSG-SGM3 (expressing human IL-3, GM-CSF and SCF) mice following 300 cGy of irradiation or intrahepatically into neonatal RAG2^−/− yc^−/− mice, respectively^27,32.
# Human CD34^+ cells isolated from MF and BC CML (Table S2) samples were transplanted intravenously into adult NSG-SGM3 (expressing human IL-3, GM-CSF and SCF) mice following
# 300 cGy of irradiation or intrahepatically into newborn RAG2^−/−[…]c^−/− mice^28,32,34. Post-transplantation (13 to 16 weeks), bone marrow and spleen were collected and analyzed by FACS^32. Mice were treated with vehicle, mismatch or imetelstat at varying doses. Also, MF CD34^+ cells were transduced with pCDH lentivirus control or ADAR1-OE lentivirus with a MOI of 100 for 48 hours, followed by intravenous transplantation into NSG-SGM3 mice to assess the impact of ADAR1 overexpression on MF engraftment.
# FIG. 4A. A schema of humanized BC CML LSC and MF SPC mouse models. Human CD34^+ cells sorted from either BC CML or myelofibrosis patient blood or marrow were transplanted into neonatal Rag2^−/−[…]c^−/− mice or intravenously transplanted into adult NSG-S mice. Engrafted BC CML or MF mouse models were randomized into (1) vehicle control, (2) mismatch control, and (3) imetelstat treatment groups (n≥3/group). Bone marrow (BM) and spleen were collected when completing the dosing plan, and the single-cell suspension was analyzed by FACS.
# [6] = 30 mg/kg imetelstat three times a week for 4 weeks, 5 different BC CML, vs vehicle controls
substance,measurement,setting,value
imetelstat,beta-catenin self-renewal gene expression by qRT-PCR,[1],ineffective
same,ADAR1 gene expression by qRT-PCR,[2],ineffective
same,LSC engraftment after serial transplantation,"[3]; compared with mismatch control treatment, p=0.04",significantly less
same,survival rates of serially transplanted mice (Kaplan-Meier),"[3]; compared with mismatch controls, p=0.05",longer
same,self-renewal capacity (replating) of MF CD34+ cells (pre-LSC),[4],decrease
same,self-renewal capacity (replating) of MF CD34+ cells (pre-LSC),[4]; listed as Imetelstat,significantly inhibited
same,survival of MF CD34+ cells (pre-LSC),[4],decrease
same,survival of MF CD34+ cells (pre-LSC),[4]; listed as Imetelstat,significantly inhibited
same,human CD45+ cell proliferation / engraftment,[5]; [6],significant reduction; also recorded: reduced
same,malignant progenitor proliferation / engraftment,[5]; [6],significant reduction; also recorded: reduced
same,splenomegaly,[5]; BC CML xenograft,decreases splenomegaly
